Legend:
[1] = Example 1: body weight and feed efficiency of piglets treated before weaning; type: in vivo; conditions: for higher body weight relative to control animals: MET fed orally one week before and 24 hours before weaning; for higher body weight relative to control animals / improvement of (average) body weight: P<0.01; for improvement of (average) body weight: gilts (female pigs), intramuscular; for higher body weight than the controls at day 35 of the study: P<0.05
Text: (§1) In a study, a total of 64 piglets (32 gilts [females] and 32 barrows [castrated males]) with initial body weight (BW) of 4.8±0.7 Kg were assigned to four treatments. Treatments were in a 4×2 factorial arrangement with a completely randomized design with two main factors: (I) control (Con), two levels of cortisol agonist (Dexamethasone; DEX; subdivided into 2 dosage levels: DEXA and DEXB), or cortisol antagonist (Metyrapone; MET), and (II) gender (gilt vs. barrow). See Table at FIG. 9, for a summary of the list of the treatments, drug dosage, and number of the animals per treatment. Dexamethasone was injected intramuscular at dosages shown, while Metyrapone was mixed with applesauce and fed to the animals with a syringe. The study lasted for 5 weeks. It began one week before weaning (14-day old piglets), and continued 4 weeks after the weaning. Pigs were weaned at the age of 21-days. Piglets received the treatments either orally via diet or by intra-muscular injection one week before and again 24 hours before weaning. Blood samples were collected by venipuncture of the jugular vein on day 14, 20, 21, 22, 23, 24, 26, 28, and 35 of age. Serum cortisol was determined using a commercial kit. Feed intake, average daily gain, feed efficiency, and mortality/morbidity was determined. Body weights (body mass) of the animals were measured on a daily basis for a week after weaning, and then on a weekly basis until the end of the study. See, FIGS. 2 and 3.

[2] = Example 1: serum cortisol in piglet blood samples (commercial kit); type: in vivo, piglets; conditions: 24 h after weaning; P>0.05
Text: as §1, with “Blood samples were collected by venipuncture of the jugular vein on day 14, 20, 21, 22, 23, 24, 26, 28, and 35 of age.” left out, “See, FIGS. 2 and 3.” left out

[3] = Example 2: body mass, daily gain, feed intake and gain-to-feed of weaned gilts; type: in vivo, piglets; conditions: weaned pigs; 0.2 mg/kg intramuscular
Protocol: In this test, eighteen gilts (of commercially relevant genetics) were weaned at 23±2 days of age. These were housed in floor pens (3 pigs per pen), and assigned to 3 treatments: (1) unweaned suckling that received saline but no cortisol agonist (UWS), (2) weaning that received only saline (WS), and (3) weaning that received the cortisol agonist (WC). The piglets of Group (3) received a cortisol agonist (0.2 mg dexamethasone per kg of body mass) via intramuscular injection on the day before commencing weaning, and day 3 post-weaning. Those of Groups (1) and (2) received instead only a saline solution intra-muscular injection at the same time intervals. Body mass (BW) was monitored daily, and average daily mass gain (ADG) and mass of feed intake (ADFI) were measured and/or estimated for the course of the study. […] Data was analyzed using mixed procedures in SAS (PROC MIXED). Repeated measure analysis of variance was used for the parameters that were measured over time.

| SMILES | increase of average body weight of the piglets ([1]; all piglets, average over the course of the study) [%] | higher body weight relative to control animals ([1]; barrows) [%] | effect on body weight of piglets at day 35 of the study ([1]; day 35) | higher body weight relative to control animals ([1]; gilts) [%] | effect on serum cortisol levels [2] | effect on body weight ([1]; barrows, anti-inflammatory dose, P>0.05) | improvement of (average) body weight ([1]; DEXA dose (anti-inflammatory)) [%] | improvement of (average) body weight ([1]; DEXB dose (immunosuppressive)) [%] | improvement of (average) body weight ([1]; DEXB dose (immunosuppressive), listed as dexamethasone) [%] | higher body weight than the controls at day 35 of the study ([1]; gilts, DEXA dose, day 35) [%] | higher body weight than the controls at day 35 of the study ([1]; gilts, DEXB dose, day 35) [%] | effect on ADFI (mass of feed intake) [3] | effect on ADG (average daily mass gain) [3] |
| --- | --- | --- | --- | --- | --- | --- | --- | --- | --- | --- | --- | --- | --- |
| CC(C)(C(=O)c1cccnc1)c1cccnc1 [MET, Metyrapone] | 3.4 | 3 | no effect | 4 | Neither MET nor DEX had an effect | – | – | – | – | – | – | – | – |
| C[C@@H]1C[C@H]2[C@@H]3CCC4=CC(=O)C=C[C@]4(C)[C@@]3(F)[C@@H](O)C[C@]2(C)[C@@]1(O)C(=O)CO [Dexamethasone] | – | – | – | – | – | no effect | 9.3 | 4.1 | 4.4 | 13 | 12 | no effect | no effect |
